# Results taken from PubChem BioAssay AID330 (DTP/NCI, 2004).
# Values joined by “and” are separate entries in the source; they are usually repeats but may differ in a detail not shown here. Equal entries are not always repeated. Toxic doses and inconclusive results are not listed.
# Tested on: P388 leukemia ip, CD2F1 mice, survival T/C
# Assay: NCI In Vivo Anticancer Drug Screen. Data for tumor model P388 Leukemia (intraperitoneal) in CD2F1 (CDF1) mice
# Details: endpoint: median survival time, higher = longer survival
# Outline: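 Mice carrying the transplanted tumor received test compound or vehicle. Survival was recorded in each group, and the value is the treated-group measurement divided by that of the vehicle-treated control group.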
# [1] = dose: 100.0 mg/kg/injection, schedule: Q01DX009 (ip), vehicle: saline with Tween-80
# [2] = dose: 200.0 mg/kg/injection, schedule: Q01DX009 (ip), vehicle: saline with Tween-80
compound,measurement,setting,value
CCCn1c(O)c(C=N)c(=O)[nH]c1=O,T/C,[1],87 % of control
same,T/C,[2],95 % of control
O=C(NC(=O)C(F)(F)F)Nc1cc(F)ccc1F,T/C,"dose: 50.0 mg/kg/injection, schedule: Q01DX009 (ip), vehicle: saline with Tween-80",99 % of control
same,T/C,[1],105 % of control
same,T/C,[2],107 % of control
CC1(C)C(C(=O)/C=C/c2ccccc2)C1[N+](=O)[O-] (centres undefined),T/C,"dose: 50.0 mg/kg/injection, schedule: Q04DX003 (ip), vehicle: Klucel (hydroxypropylcellulose) (HPC)",96 % of control
same,T/C,"dose: 100.0 mg/kg/injection, schedule: Q04DX003 (ip), vehicle: Klucel (hydroxypropylcellulose) (HPC)",96 % of control
same,T/C,"dose: 200.0 mg/kg/injection, schedule: Q04DX003 (ip), vehicle: Klucel (hydroxypropylcellulose) (HPC)",100 % of control
same,T/C,"dose: 400.0 mg/kg/injection, schedule: Q04DX003 (ip), vehicle: Klucel (hydroxypropylcellulose) (HPC)",101 % of control
CC(C)(C)c1ccc(C(=O)N2CCOC23CCCCC3)cc1,T/C,"dose: 50.0 mg/kg/injection, schedule: Q01DX005 (ip), vehicle: Klucel (hydroxypropylcellulose) (HPC)",105 % of control
same,T/C,"dose: 100.0 mg/kg/injection, schedule: Q01DX005 (ip), vehicle: Klucel (hydroxypropylcellulose) (HPC)",96 % of control
same,T/C,"dose: 200.0 mg/kg/injection, schedule: Q01DX005 (ip), vehicle: Klucel (hydroxypropylcellulose) (HPC)",96 % of control
COc1ccc2nc(NCCNCCO)cc(NCCNCCO)c2c1,T/C,"dose: 30.0 mg/kg/injection, schedule: Q01DX005 (ip), vehicle: water",98 % of control
same,T/C,"dose: 60.0 mg/kg/injection, schedule: Q01DX005 (ip), vehicle: water",97 % of control
COc1ccc(CN2CCC[S+]2C)cc1 (centres undefined),T/C,"dose: 50.0 mg/kg/injection, schedule: Q01DX005 (ip), vehicle: saline",95 % of control
O=C(O)c1c[nH]c2cc(F)ccc2c1=O,T/C,"dose: 50.0 mg/kg/injection, schedule: Q01DX009 (ip), vehicle: saline",103 % of control
same,T/C,"dose: 100.0 mg/kg/injection, schedule: Q01DX009 (ip), vehicle: saline",95 % of control
same,T/C,"dose: 200.0 mg/kg/injection, schedule: Q01DX009 (ip), vehicle: saline",96 % of control
COc1ccc(OC)c(Cc2cnc3nc(N)nc(N)c3c2C)c1,T/C,"dose: 10.0 mg/kg/injection, schedule: Q01DX005 (ip), vehicle: dextrose",113 % of control
same,T/C,"dose: 10.0 mg/kg/injection, schedule: Q01DX005 (ip), vehicle: water",112 % of control
same,T/C,"dose: 25.0 mg/kg/injection, schedule: Q04DX003 (ip), vehicle: dextrose",115 % of control
same,T/C,"dose: 40.0 mg/kg/injection, schedule: Q01DX005 (ip), vehicle: dextrose",170 % of control
same,T/C,"dose: 100.0 mg/kg/injection, schedule: Q04DX003 (ip), vehicle: dextrose",166 % of control
CCn1c2c(c3ccccc3c1=O)C(=O)c1ccccc1-2,T/C,"dose: 50.0 mg/kg/injection, schedule: Q01DX005 (ip), vehicle: saline with Tween-80",103 % of control
same,T/C,"dose: 100.0 mg/kg/injection, schedule: Q01DX005 (ip), vehicle: saline with Tween-80",103 % of control
same,T/C,"dose: 200.0 mg/kg/injection, schedule: Q01DX005 (ip), vehicle: saline with Tween-80",94 % of control
CSCC(CO)NC(=O)/C=C/c1c(C)[nH]c(=O)[nH]c1=O (centres undefined),T/C,"dose: 50.0 mg/kg/injection, schedule: Q01DX009 (ip), vehicle: other",86 % of control and 101 % of control
same,T/C,"dose: 100.0 mg/kg/injection, schedule: Q01DX009 (ip), vehicle: other",89 % of control and 111 % of control
same,T/C,"dose: 200.0 mg/kg/injection, schedule: Q01DX009 (ip), vehicle: other",94 % of control
same,T/C,"dose: 400.0 mg/kg/injection, schedule: Q01DX009 (ip), vehicle: other",88 % of control
N#CC1=CN(Cc2ccc3c(c2)OCO3)C=CC1,T/C,"dose: 50.0 mg/kg/injection, schedule: Q01DX005 (ip), vehicle: Klucel + Tween-80",100 % of control
same,T/C,"dose: 100.0 mg/kg/injection, schedule: Q01DX005 (ip), vehicle: Klucel + Tween-80",98 % of control
same,T/C,"dose: 200.0 mg/kg/injection, schedule: Q01DX005 (ip), vehicle: Klucel + Tween-80",92 % of control
Fc1ccc(CSC(=S)Nc2ccc(I)cc2)cc1,T/C,"dose: 50.0 mg/kg/injection, schedule: Q01DX009 (ip), vehicle: suspension in saline",97 % of control
same,T/C,"dose: 100.0 mg/kg/injection, schedule: Q01DX009 (ip), vehicle: suspension in saline",93 % of control
same,T/C,"dose: 200.0 mg/kg/injection, schedule: Q01DX009 (ip), vehicle: suspension in saline",103 % of control
CC(=O)OC1CCC2C3C=CC4=C/C(=N/NC(N)=S)CCC4(C)C3CCC12C (centres undefined),T/C,"dose: 100.0 mg/kg/injection, schedule: Q01DX001 (ip), vehicle: saline",100 % of control
same,T/C,"dose: 200.0 mg/kg/injection, schedule: Q01DX001 (ip), vehicle: saline",98 % of control
same,T/C,"dose: 400.0 mg/kg/injection, schedule: Q01DX001 (ip), vehicle: saline",99 % of control
